Laboratory results reported in patent US20070014736A1, “Methods of delivering corticotroph-derived glycoprotein hormone” (priority 2005, published 2007).

Tests used:
[1] = tested on: adrenal glands; experiment: Intraperitoneal recombinant CGH for two weeks, adrenal weight; format: in vivo, mice; conditions: 0.5 mg/kg Dex i.p. daily, day 15
Source text: Summary: Mice were exposed to CGH through infection with adenovirus particles expressing GPHA2 and GPHB5, leading to overexpression and secretion of CGH from the liver of these animals. […] The hypertrophy was apparent in the inner cortical layers, the zona fasciculata and the zona reticularis. Similarly, mice were exposed to CGH through intraperitoneal injection of recombinant CGH protein alone, recombinant CGH protein along with the glucocorticoid Dexamethasone (Dex), Dex alone, or PBS alone daily for two weeks.
Sixteen C57BL/6 female mice at 8 weeks of age were separated into four groups. The first group received daily injections of 0.25 mg/kg of recombinant CGH protein intraperitoneally. The second group received daily injections of PBS using the same procedure. The third group received daily injections of 0.25 mg/kg of CGH plus 0.05 mg/kg Dex and the final group received 0.5 mg/kg Dex, alone. Animals were sacrificed on day 15 and the adrenal glands were isolated and weighed. Example 5 describes the expression and purification of recombinant CGH protein used in this experiment.

[2] = tested on: LPS-induced mild endotoxemia mouse model; experiment: LPS-induced mild endotoxemia mouse model, serum cytokines; format: in vivo, mice
Experimental: An in vivo experiment was designed to examine the effect of CGH in a mouse model of LPS-induced mild endotoxemia. This model mimics acute endotoxemia/sepsis by challenging mice with a low, non-lethal dose of bacterial endotoxin (lipopolysaccharide, LPS). Serum is collected at various timepoints (1-8 hours) after intraperitoneal LPS injection and analyzed for altered expression of a wide variety of pro- and anti-inflammatory cytokines and acute phase proteins that mediate the inflammatory response. The model provides a means to assess the potential anti-inflammatory effects of therapeutic candidates during a robust inflammatory response. To initially assess the model, we measured proinflammatory cytokines in a pilot experiment to collect reference data for the model.
C57B1/6 mice (Charles River Laboratories; 5 mice/group) were treated i.p. with PBS, 0.2 mg/kg CGH in PBS, or 2 mg/kg CGH in PBS 1 hour prior to LPS challenge. The mice were then challenged with 25 ug of LPS i.p. and bled at 1 hour and 4 hours after LPS injection. Serum was analyzed for TNF[…] (1 hour) and IL-6 (4 hours) levels by ELISA.
To determine if CGH would potentiate the effect of a sub-maximal dose of glucocorticoid, groups of 10 C57B1/6 mice each were treated i.p. with PBS, 0.15 or 1.5 mg/kg Dex, 2 mg/kg CGH, or a combination of CGH and low or high doses of Dex, 1 hour prior to injection of 25 ug LPS i.p. As shown in TABLE 3 (Expt #2), either 2 mg/kg CGH or 1.5 mg/kg Dex treatment alone (1 hour prior to LPS) caused a significant drop in serum TNFα levels at 1 hour, as observed in previous experiments. The effects of CGH administered in conjunction with Dex on inhibition of TNFα production were greater than either dose of Dex alone.

[3] = tested on: Delayed Type Hypersensitivity (DTH) reaction; experiment: Delayed Type Hypersensitivity (DTH), change in ear thickness; format: in vivo, mice
[4] = tested on: neutrophil infiltration in the ears; experiment: Neutrophil (Gr-1) histomorphometry of ears in DTH experiment #1; format: in vivo, mice; conditions: 1.5 mg/kg Dex i.p. at challenge (day 7)
Experimental: Ears from mice in DTH experiment #1 were analyzed by immunohistochemistry to assess which cell types were most affected by CGH treatment. Ears were fixed in Zinc/Tris buffer (2.3 mM calcium acetate/31.6 mM zinc acetate/36.7 mM zinc chloride in 0.1M Tris-HCL buffer, pH 7.4) for 24 hours at room temperature and stained with antibodies specific for CD4, CD8, CD11c, and Gr-1 (neutrophils). […] Ears were stained using a TechMate 500 autoimmunostainer (Biotech/Ventana) MIP protocol with some modifications. […] This step was followed, after a wash, by biotinylated rabbit anti-rat IgG secondary antibody (Dako, used at 10 ug/ml in PBS with 2% normal rabbit serum and 2% nonfat dry milk) for 45 min. The sections were then washed and treated with HP Block (1.5% H2O2 in 50% methanol) 3 times, 7 min each, followed by 25 min in avidin-biotin complex, 3 times of 4 min each in DAB (Diaminobenzidine), then with Methyl green for 10 min.
From this staining procedure, there was a clear reduction in the number of neutrophils infiltrating the ears of those mice treated with CGH or Dex, compared to the PBS-treated controls. Histomorphometry was performed to obtain the average pixel density of neutrophils per unit length (1 mm) present in the ear samples. Despite a fair amount of variability among each group, there was a significant reduction in neutrophil staining in the Dex and low dose CGH groups, as well as a nearly significant (p=0.0507) reduction in the high dose CGH group (see TABLE 5, p values).

[5] = tested on: differentiated 3T3 L1 adipocytes; experiment: CRE-luciferase reporter assay in differentiated 3T3 L1 adipocytes; format: cell-based, murine
Source text: (§1) Differentiated murine 3T3 L1 adipocytes and primary human adipocytes were used to study signal transduction of CGH. 3T3 L1 fibroblasts were differentiated into adipocytes and the cells were transduced with recombinant adenovirus containing a reporter construct, a firefly luciferase gene under the control of cAMP response element (CRE) enhancer sequences. This assay system detects cAMP-mediated gene induction downstream of activation of Gs-coupled G-protein coupled receptors (GPCR's). […] In a separate experiment, undifferentiated 3T3 L1 fibroblasts were transduced with the recombinant adenovirus. […] In another experiment, human primary adipocytes were also transduced with the recombinant adenovirus containing a reporter construct. Treatment of the human adipocytes with isoproterenol produced a 17-fold induction of luciferase expression.
(§2) Cells were cultured at 37° C. in an 8% CO2 humidified incubator. Cells were seeded to collagen-coated 96-well plates (Becton Dickinson, cat. #356407) at a density of 5,000 cells per well. […] Luciferase activity was measured on a microplate luminometer (PerkinElmer Life Sciences, Inc., model LB 96V2R) following automated injection of 40 μl of luciferase assay substrate into each well. […]

[6] = tested on: human primary adipocytes; experiment: CRE-luciferase reporter assay in human primary adipocytes; format: cell-based
Source text: as §1, §2

[7] = target: T1, thyroid-stimulating hormone receptor (TSHR) expressed on BHK cells (BHK-TSHR cells) (UniProt P16473 21-764, limits assumed); experiment: radioligand saturation binding to BHK-TSHR cells, two-site non-linear regression, low-affinity site
T1 construct: whole, on cells; also called TSH receptor
Experimental: (§3) Binding reactions were terminated by removing the binding medium and the cell monolayers were washed three times with 1.0-2.0 ml of ice-cold PBS containing 1.0 mg/ml BSA and twice with 1.0-2.0 ml of ice cold albumin-free PBS. Cells were solubilized in 1.0 ml of 1.0N NaOH for 10 min at room temperature and cell-associated radioactivity was determined in a gamma counter. The measured radioactivity was normalized to cell number that was determined on plates of cells cultured in parallel. Binding data were analyzed by non-linear regression using Prizm 3.0 (GraphPad Software, San Diego, Calif.).

[8] = target: T1, thyroid-stimulating hormone receptor …; experiment: radioligand saturation binding to BHK-TSHR cells, two-site non-linear regression, high-affinity site
Experimental: as §3

[9] = tested on: TSHR; experiment: Binding of 125I-CGH and 125I-TSH to BHK cells expressing the TSHR; design: species or system murine or human
Experimental: as §3, with “BHK cells expressing murine or human TSHRs were cultured in Dulbecco's Modified Eagle's Medium [DMEM (high glucose)] containing 5% fetal bovine serum, 1% Glutamax, 1% sodium pyruvate, 250 nM methotrexate, and Geneticin ( 1/100). […] Plates of cells were placed on ice and washed twice with 1.0-2.0 ml of ice-cold PBS. […] Specific binding was determined in the presence (nonspecific binding) and absence (total binding) of unlabeled rhCGH (25.0 μg/ml) or TSH (10 μg/ml). Binding reactions” for “Binding reactions”

[10] = tested on: parental BHK cells lacking the TSHR; experiment: Binding of radioligands to parental BHK cells; conditions: data not shown
Experimental: as §3, with “BHK cells expressing murine or human TSHRs were cultured in Dulbecco's Modified Eagle's Medium [DMEM (high glucose)] containing 5% fetal bovine serum, 1% Glutamax, 1% sodium pyruvate, 250 nM methotrexate, and Geneticin ( 1/100). […] Plates of cells were placed on ice and washed twice with 1.0-2.0 ml of ice-cold PBS. […] Specific binding was determined in the presence (nonspecific binding) and absence (total binding) of unlabeled rhCGH (25.0 μg/ml) or TSH (10 μg/ml). Binding reactions” for “Binding reactions”

[11] = target: T2, human TSHR (Homo sapiens, UniProt P16473); experiment: Bioactivity in BHK cells with CRE-luciferase reporter and human TSHR; format: cell-based; conditions: CRE-luciferase reporter
T2 construct: expressed in transfected cells; host or cells: BHK cells

[12] = Expt 1, 1.5 mg/kg Dex i.p. at challenge (d7), 24 h
[13] = Expt 2, 1.5 mg/kg Dex i.p. at challenge (d7)
[14] = Expt 3, 1.5 mg/kg Dex i.p. at sensitization (d0-4)

C[C@@H]1C[C@H]2[C@@H]3CCC4=CC(=O)C=C[C@]4(C)[C@@]3(F)[C@@H](O)C[C@]2(C)[C@@]1(O)C(=O)CO [Dex, Dexamethasone, reference compound]
Average adrenal weight/100 g body weight [1]: 13.12 +/− 0.88 | IL-6, 4 hours ([2]; Expt 2, 0.15 mg/kg Dex): 37.1 ± 8.8 ng/mL | TNFα, 1 hour ([2]; Expt 2, 0.15 mg/kg Dex): 1765 ± 589 pg/mL | IL-6, 4 hours ([2]; Expt 2, 1.5 mg/kg Dex): 16.0 ± 4.9 ng/mL | TNFα, 1 hour ([2]; Expt 2, 1.5 mg/kg Dex): 264 ± 138 pg/mL | Change in ear thickness, left ear (PBS) [3, 12]: 0.42 +/− 0.52 ×10^−3 inch | Change in ear thickness, right ear (OVA) [3, 12]: 2.62 +/− 1.18 ×10^−3 inch | Change in ear thickness, left ear (PBS) [3, 13]: 0.23 +/− 0.77 ×10^−3 inch | Change in ear thickness, right ear (OVA) [3, 13]: 2.89 +/− 1.29 ×10^−3 inch | Change in ear thickness, left ear (PBS) [3, 14]: 0.50 +/− 0.54 ×10^−3 inch | Change in ear thickness, right ear (OVA) [3, 14]: 4.38 +/− 1.34 ×10^−3 inch | Pixel density: Neutrophils, left ear (PBS) [4]: 749 +/− 686 | Pixel density: Neutrophils, right ear (OVA) [4]: 3651 +/− 2779

CC(C)NCC(O)c1ccc(O)c(O)c1 (centres unmarked) [isoproterenol, reference compound]
induction of luciferase expression [5]: 80 fold | induction of luciferase expression / reporter gene [6]: 17 fold

B1: recombinant human Corticotroph-derived Glycoprotein Hormone (rhCGH), heterodimer of GPHA2 and GPHB5 (ligand)
chain 1: QEAVIPGCHLHPFNVTVRSDRQGTCQGSHVAQACVGHCESSAFPSRYSVLVASGYRHNITSVSQCCTISGLKKVKVQLQCVGSRREELEIFTARACQCDMCRLSRY
chain 2: ASSGNLRTFVGCAVREFTFLAKKPGCRGLRITTDACWGRCETWEKPILEPPYIEAHHRVCTYNETKQVTVKLPNCAPGVDPFYTYPVAIRCDCGACSTATTECETI
notes: correct NH2 termini reported; also called Thyrostimulin
Kd [7]: 2700 µM | Kd [8]: 0.00119 µM

B2: ^125I-CGH: rhCGH radiolabeled with 125I-Bolton Hunter Reagent (protein)
chain 1: B1 chain 1
chain 2: B1 chain 2
high affinity sites per cell [9]: 86,000 sites per cell | Hill slope ([9]; specific-binding data): 1.08 | Bmax, high-affinity site ([9]; two-site model): 139±74 fmol/10^6 cells | Bmax, low-affinity site ([9]; two-site model): 1.6±1.4×10^6 fmol/10^6 cells | binding to parental BHK cells lacking the TSHR [10]: Little or no binding | bioactivity compared to unlabeled counterpart [11]: no significant differences
